Data as given in patent publication US9771379B2, “N-(2-(2-amino-6-substituted-4,4a,5,6-tetrahydropyrano[3,4-d][1,3]OXAZIN-8a(8H)-yl)-thiazol-4-yl) amides” (Pfizer Inc., priority 2015, dated 2017).

Target: full length human BACE1 (Homo sapiens (Human), UniProt P56817)
Experiment: BACE1 Scintillation Proximity Binding Assay (SPA)
Details: radioligand displacement, HEK cell membranes, pH 6.0
Protocol: BACE1 Scintillation Proximity Binding Assay (SPA): The BACE1 binding assay measured beta-site amyloid precursor protein-cleaving enzyme (BACE) binding as a decrease in the counts of radioligand bound in a scintillation proximity assay (SPA). […] Full length human BACE1 over-expressed in HEK cells was prepared by Pfizer scientists. Frozen stock cell paste was reacted in 50 mM sodium acetate buffer (pH=6.0) containing 3H-(4aR,6R,8aS)-8a-(2,4-difluorophenyl)-6-(1-methyl-1H-pyrazol-4-yl)-4,4a,5,6,8,8a-hexahydropyrano[3,4-d][1,3]thiazin-2-amine ligand, SPA bead and 60 μM to 600 pM of test compound in an assay volume of 27 uL. The compound plate also contained positive (BACE inhibitor) and negative (DMSO) control wells. The binding was carried out at room temperature for 30 minutes and then the plates were read on a TriLux Microbeta reader to determine the number of counts bound. The raw data was converted to percent effect compared to positive and negative control wells and the compound concentrations and % effect values for tested compounds were plotted to determine the 50% effect (1050) with a four-parameter logistic dose response equation.

Sequence of full length human BACE1 (P56817 46-501): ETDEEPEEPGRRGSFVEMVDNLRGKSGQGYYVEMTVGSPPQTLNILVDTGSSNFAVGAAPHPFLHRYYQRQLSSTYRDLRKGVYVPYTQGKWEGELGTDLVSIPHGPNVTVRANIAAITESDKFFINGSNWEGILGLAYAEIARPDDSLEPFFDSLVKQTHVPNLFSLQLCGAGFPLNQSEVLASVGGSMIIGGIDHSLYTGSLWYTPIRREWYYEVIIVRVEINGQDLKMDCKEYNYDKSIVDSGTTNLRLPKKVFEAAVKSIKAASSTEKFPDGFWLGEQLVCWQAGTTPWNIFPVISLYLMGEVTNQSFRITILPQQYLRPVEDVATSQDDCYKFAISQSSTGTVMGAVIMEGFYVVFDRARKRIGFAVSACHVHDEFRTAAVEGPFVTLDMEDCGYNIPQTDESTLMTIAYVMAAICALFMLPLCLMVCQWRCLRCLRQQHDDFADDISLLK

**Q.** With `Cc1cc(C#N)cnc1C(=O)Nc1csc([C@]23CO[C@@H](C(F)(F)F)C[C@H]2COC(N)=N3)n1` [Example 21, N-{2-[(4aR,6R,8aR)-2-amino-6-(trifluoromethyl)-4,4a,5,6-tetrahydropyrano [3,4-d][1,3]oxazin-8a(8H)-yl]-1,3-thiazol-4-yl}-5-cyano-3-methylpyridine-2-carboxamide] as the molecule, how does the IC50 read?
**A.** 5 nM

**Q.** Which IC50 does the source give for `Cc1nc(OC(F)F)cnc1C(=O)Nc1csc([C@]23CO[C@@H](C(F)(F)F)C[C@H]2COC(N)=N3)n1` [Example 22, N-{2-[(4aR,6R,8aR)-2-amino-6-(trifluoromethyl)-4,4a,5,6-tetrahydropyrano [3,4-d][1,3]oxazin-8a(8H)-yl]-1,3-thiazol-4-yl}-5-(difluoromethoxy)-3-methyl pyrazine-2-carboxamide] here?
**A.** 13 nM

**Q.** `COc1cnc(C(=O)Nc2csc([C@]34CO[C@@H](C(F)(F)F)C[C@H]3COC(N)=N4)n2)c(C)n1` [Example 23, N-{2-[(4aR,6R,8aR)-2-amino-6-(trifluoromethyl)-4,4a,5,6-tetrahydropyrano [3,4-d][1,3]oxazin-8a(8H)-yl]-1,3-thiazol-4-yl}-5-methoxy-3-methylpyrazine-2-carboxamide] was tested. Which IC50 did it give?
**A.** 162 nM
